Consider four compounds from patent publication US4414226A, “1,4-Naphtoquinone derivatives and their use in treating coccidiosis” (Fujisawa Pharmaceutical Co., Ltd., priority 1980, dated 1983).

One data set can be described thus: Stability. Format: physicochemical.
The next data set can be described thus: Solubility. The class given is physicochemical.
Another data set has as its system Eimeria tenella. Briefly: coccidium infection and treatment test in the chicken (Test example 1, Table 1). Format: in vivo, Eimeria tenella; male white Leghorn chickens. The arrangement: Lesion score: scale not given here. To be noted: for Lesion score: 3 times a day for 3 days, cecal lesions; for Weight gain index: noninfected group = 100. The protocol:
(1) A coccidium infection and treatment test in the chicken
Male white Leghorn chickens, aged 2 weeks and with a mean body weight of 100 g, were treated with two representative examples of product compound (I) and Monensin, a control drug, at the various dose levels indicated in Table 1. Each compound and drug was suspended in a 1% aqueous solution of gum arabic and 2 ml per dose of the suspension was administered 3 times a day for 3 consecutive days. Birds in the untreated control groups were given 2 ml per dose of a 1% aqueous solution of gum arabic only in otherwise the same manner.
Immediately after the first dosing, birds in the infected groups were orally inoculated with 3.0×10^4 /bird of oocysts of Eimeria tenella. Body weights were taken at the first treatment and on the 3rd day after the entire course of treatment to investigate changes in body weight. Immediately after the second taking of body weights, the birds were terminated and autopsied to examine and score the cecal lesions.
Dosage: The total dose (mg) given to each bird during the test period.
Weight gain index: These indices were computed with the body weight gain
of birds in the noninfected group being taken as 100.
Three birds were assigned to each of the infected-non-treated groups, non-infected groups, the monencin group and the (Ia-A) groups, and the weight gain indices were computed from the mean body weight values for 3 birds. The (Ia-B) groups each consisted of a bird only.

[1] abbreviates: total dose 40 mg per bird, oral.
Setting [2] is: 30 minutes in 50° C. solution at pH 2.
The mark [3] stands for this setting: 30 minutes in 50° C. solution at pH 10.

Consider `COc1cc(C)cc2c(=O)oc3c(c12)C(=O)c1cccc(O)c1C3=O` [(Ia-A), 8-hydroxy-1-methoxy-3-methyl-7,12-dihydro-5H-benzo[d]naphtho[2,3-b]pyran-5,7,12-trione], for which the Stability entry in “Stability” (acid solutions) and in the data set “Stability” (alkaline solutions) was “Instable” each time. Moreover, the Solubility result in the data set “Solubility” (acetone) is reported as “Sparingly soluble”; in the data set “Solubility” (chloroform) it was “Sparingly soluble”; in “Solubility” (dimethyl sulfoxide), “Partially soluble”; in “Solubility” (ethanol) it was “Sparingly soluble”; in the data set “Solubility” (methanol), “Sparingly soluble”; in “Solubility” (tetrahydrofuran), “Partially soluble”. Further, the Solubility entry in the data set “Solubility” (water) is on record as “Insoluble”. Moreover, the Lesion score was found to be 2.0 in the data set on Eimeria tenella (total dose 1.25 mg per bird); 2.0 in the data set with Eimeria tenella (total dose 2.5 mg per bird); 0.3 with Eimeria tenella (total dose 5 mg per bird); 0 in the data set on Eimeria tenella (total dose 10 mg per bird); 0 with Eimeria tenella (total dose 20 mg per bird); 0 in the data set with Eimeria tenella (setting [1]). For the same compound, the Weight gain index in the data set on Eimeria tenella (total dose 1.25 mg per bird) was determined as 108; in the data set with Eimeria tenella (total dose 2.5 mg per bird), 92; in the data set with Eimeria tenella (total dose 5 mg per bird) it was 97; in the data set on Eimeria tenella (total dose 10 mg per bird) it was 106; with Eimeria tenella (total dose 20 mg per bird), 108; with Eimeria tenella (total dose 40 mg per bird), 95.

As to `COc1cc(C)cc(C(=O)O)c1C1=CC(=O)c2c(O)cccc2C1=O` [(Ia-B), 2-(5-hydroxy-1,4-naphthoquinon-2-yl)-3-methoxy-5-methylbenzoic acid], the Stability result in “Stability” (setting [2]) and in the data set “Stability” (setting [3]) was “Stable” in each case. Besides, the Solubility entry in “Solubility” (acetone) is recorded as “Readily soluble”; in the data set “Solubility” (benzene), “Insoluble”; in the data set “Solubility” (chloroform) it was “Readily soluble”; in the data set “Solubility” (ethanol) it was “Readily soluble”; in the data set “Solubility” (ethyl acetate), “Readily soluble”; in the data set “Solubility” (hexane) it was “Insoluble”. Moreover, the values for the Solubility result in “Solubility” (methanol) and in “Solubility” (water) were “Readily soluble” and “Insoluble”, respectively. Moreover, the Lesion score with Eimeria tenella (total dose 2.5 mg per bird) is reported as 3; with Eimeria tenella (total dose 5 mg per bird), 0; in the data set on Eimeria tenella (total dose 10 mg per bird), 0; in the data set on Eimeria tenella (total dose 20 mg per bird) it was 0; in the data set with Eimeria tenella (setting [1]) it was 0. Further, the Weight gain index amounted to 68 in the data set on Eimeria tenella (total dose 2.5 mg per bird); 80 in the data set with Eimeria tenella (total dose 5 mg per bird); 95 in the data set with Eimeria tenella (total dose 10 mg per bird); 90 in the data set on Eimeria tenella (total dose 20 mg per bird); 102 in the data set on Eimeria tenella (total dose 40 mg per bird).

For `COc1cc(C)cc(C(=O)O)c1C1=C(O)C(=O)c2c(O)cccc2C1=O` [(Ia-C), 2-(3,5-dihydroxy-1,4-naphthoquinon-2-yl)-3-methoxy-5-methylbenzoic acid], the Stability result in the data set “Stability” (setting [2]) and in “Stability” (setting [3]) was “Stable” throughout. The Solubility entry in “Solubility” (acetone) is “Partially soluble”; in “Solubility” (ethanol), “Readily soluble”; in “Solubility” (ether) it was “Insoluble”; in “Solubility” (ethyl acetate) it was “Partially soluble”; in “Solubility” (hexane), “Insoluble”; in the data set “Solubility” (methanol), “Readily soluble”. Further, in the data set “Solubility” (water), the Solubility entry was “Insoluble”.

Take `CC[C@@]1([C@@H]2O[C@@H]([C@H]3O[C@@](O)(CO)[C@H](C)C[C@@H]3C)C[C@@H]2C)CC[C@H]([C@]2(C)CC[C@]3(C[C@H](O)[C@@H](C)[C@@H]([C@@H](C)[C@@H](OC)[C@H](C)C(=O)O)O3)O2)O1` [Monensin, reference compound]: the Lesion score in the data set with Eimeria tenella (total dose 1.25 mg per bird) was 4.0; in the data set with Eimeria tenella (total dose 2.5 mg per bird) it was 2.7; in the data set with Eimeria tenella (total dose 5 mg per bird), 2.3; in the data set with Eimeria tenella (total dose 10 mg per bird) it was 0; in the data set with Eimeria tenella (total dose 20 mg per bird), 0; in the data set on Eimeria tenella (setting [1]), 0. Moreover, the Weight gain index with Eimeria tenella (total dose 1.25 mg per bird) amounted to 99; in the data set with Eimeria tenella (total dose 2.5 mg per bird), 92; with Eimeria tenella (total dose 5 mg per bird) it was 98; with Eimeria tenella (total dose 10 mg per bird), 68; in the data set with Eimeria tenella (total dose 20 mg per bird), 51; with Eimeria tenella (total dose 40 mg per bird), 41.
